# Test results reported in patent publication US7666913B2, “Method of treating or preventing osteoporosis using isotaxiresinol derived from Taxus yunnanensis” (Kotosugi Inc., priority 2004, dated 2010).
# Legend:
# Format in all cases: in vivo, rat
# [1] = tested on: ovariectomized female Wistar rats; test: Antiosteoporotic activity in ovariectomized rats: body weight and uterine weight
# Method: Each of the animal groups for experiments included comprised 10 rats. Ovaries were removed from female Wistar rats (age: 8 months, weight: 260-330 g). ITX, suspended in 1% water solution of carboxymethl cellulose sodium salt, was orally administered to rats of one group in a dose of 50 mg/kg (weight of rat) and to rats of another group in a dose of 100 mg/kg (weight of rat) 6 times per week after 2 weeks of the removal.
# An OVX (ovariectomized) group was prepared as negative control. Furthermore, another group was sham-operated as a Sham group. The OVX group and the Sham group were only fed, with no compound or drug given.
# Furthermore, a tibia, a femur, and a uterus were removed from every rat and then weighted.
# [2] = tested on: ovariectomized female Wistar rats, proximal tibia bone; test: Antiosteoporotic activity in ovariectomized rats: pQCT of proximal tibia (BMC, BMD, cortical geometry, bone strength indices); conditions: for Cortical bone thickness as % of that of the Sham group / Bone strength index PSSI / Bone strength index XSSI / Bone strength index YSSI / Cancellous bone BMC / Cancellous bone BMD / Cortical bone BMC / Cortical bone BMD / Cortical bone thickness / Edno. C. (endosteal circumference) / Peri. C. (periosteal circumference) / Total bone BMC / Total bone BMD: OVX rats; for Bone strength index PSSI / Bone strength index XSSI / Bone strength index YSSI / Cancellous bone BMC / Cancellous bone BMD / Cortical bone BMC / Cortical bone BMD / Cortical bone thickness / Edno. C. (endosteal circumference) / Peri. C. (periosteal circumference) / Total bone BMC / Total bone BMD: 6 weeks, 1 mm under growth plate
# Method: Antiosteoporotic Activity of ITX was Assessed by Using Rats. Each of the animal groups for experiments included comprised 10 rats. Ovaries were removed from female Wistar rats (age: 8 months, weight: 260-330 g). ITX, suspended in 1% water solution of carboxymethl cellulose sodium salt, was orally administered to rats of one group in a dose of 50 mg/kg (weight of rat) and to rats of another group in a dose of 100 mg/kg (weight of rat) 6 times per week after 2 weeks of the removal. […] An OVX (ovariectomized) group was prepared as negative control. Furthermore, another group was sham-operated as a Sham group. The OVX group and the Sham group were only fed, with no compound or drug given. Tibial characteristics of the rats, which were anesthetized in advance, were measured by means of peripheral quantitative computed tomography (pQCT) 6 weeks after the initiation of the administration (i.e., 8 weeks after the removal of the ovaries). In the measurement, the left tibiae were scanned with a pQCT system XCT Research M (manufactured by Stratec Medizintechnik GmbH, Germany). Voxel size was set to 0.08 mm, slice thickness was set to 0.5 mm, and cortical BMD threshold was set to 464 mg/cm^3. Furthermore, peel mode was set to 20 to divide total bone into cortical bone or cancerous bone. A growth plate was identified after preliminary scanning (scout scan), and then a reference position was identified. Next, transverse image sets of four cross-sectional slices were scanned at a region of 1 to 5 mm under the growth plate. Cortical BMC and BMD and cancellous BMC and BMD, thickness of cortical bone, and periosteal circumference and endosteal circumference of cortical bone were measured at a separation mode of 3 and a contour mode of 2. Three indices of bone strength (X-, Y-, and Polar-axes) were also measured, and the data obtained were processed by XCT Research Series Manual Software Version 5.4, in which case the standard cortical BMD was set to 1,200 mg/cm^3. […] The figures in the total bone columns show the values of the whole bone obtained by measuring cancellous bone and cortical bone together. […] The presentation of t-test results applies to Table 4 as well. In the experiment, three bone strength indexes were measured: PSSI (polar-axis strength index), XSSI (X-axis strength index), and YSSI (Y-axis strength index).
# [3] = tested on: ovariectomized female Wistar rats, tibiae and femora; test: Antiosteoporotic activity in ovariectomized rats: weight and length of tibiae and femora; conditions: for Femur Length / Femur Weight / Tibia Length / Tibia Weight: OVX rats, mean ± SD
# Method: Each of the animal groups for experiments included comprised 10 rats. Ovaries were removed from female Wistar rats (age: 8 months, weight: 260-330 g). ITX, suspended in 1% water solution of carboxymethl cellulose sodium salt, was orally administered to rats of one group in a dose of 50 mg/kg (weight of rat) and to rats of another group in a dose of 100 mg/kg (weight of rat) 6 times per week after 2 weeks of the removal. […] An OVX (ovariectomized) group was prepared as negative control. Furthermore, another group was sham-operated as a Sham group. The OVX group and the Sham group were only fed, with no compound or drug given. Furthermore, a tibia, a femur, and a uterus were removed from every rat and then weighted. […] In the table, ITX 100 is a group of the rats which ITX was given to in a dose of 100 mg/kg, and ITX 50 is a group of the rats which ITX was given to in a dose of 50 mg/kg. E2 is a group of the rats which E2 was given to. The figures in each column of the table show averages and standard deviations of the measured values. The presentation of the figures applies to Table 3 and Table 4 as well.
# [4] = ITX 50 mg/kg oral, 6 times per week
# [5] = ITX 100 mg/kg oral, 6 times per week
# [6] = E2 0.1 mg/kg into abdominal cavity
smiles,measurement,setting,value
"COc1cc2c(cc1O)[C@H](c1ccc(O)c(O)c1)[C@@H](CO)[C@H](CO)C2 [ITX, isotaxiresinol]",Body weight at the end compared to the OVX group (in words),[1]; ITX 50 mg/kg oral,inhibition of increase
same,Body weight at the end compared to the OVX group (in words),[1]; ITX 100 mg/kg oral,inhibition of increase
same,Body weight at the end,"[1]; OVX rats, ITX 50 mg/kg oral, end of the experiment",318 ± 18 g
same,Body weight at the end,"[1]; OVX rats, ITX 100 mg/kg oral, end of the experiment",301 ± 15 g
same,Cortical BMC compared to the OVX group (in words),[2]; ITX 50 mg/kg oral,inhibition of decrease
same,Cortical BMD compared to the OVX group (in words),[2]; ITX 50 mg/kg oral,inhibition of decrease
same,Endosteal circumference compared to the OVX group (in words),[2]; ITX 50 mg/kg oral,inhibition of increase
same,Increase in PSSI compared to the OVX group,[2]; ITX 50 mg/kg oral,16.2%
same,Increase in XSSI compared to the OVX group,[2]; ITX 50 mg/kg oral,14.2%
same,Increase in YSSI compared to the OVX group,[2]; ITX 50 mg/kg oral,24.0%
same,Periosteal circumference compared to the OVX group (in words),[2]; ITX 50 mg/kg oral,the same level or an increase
same,Total BMD compared to the OVX group (in words),[2]; ITX 50 mg/kg oral,inhibition of decrease
same,Cancellous BMC compared to the OVX group (in words),[2]; ITX 100 mg/kg oral,inhibition of decrease
same,Cortical BMD compared to the OVX group (in words),[2]; ITX 100 mg/kg oral,inhibition of decrease
same,Endosteal circumference compared to the OVX group (in words),[2]; ITX 100 mg/kg oral,inhibition of increase
same,Periosteal circumference compared to the OVX group (in words),[2]; ITX 100 mg/kg oral,the same level or an increase
same,Cortical bone thickness as % of that of the Sham group,[2]; ITX 50 mg/kg oral,98.3%
same,Bone strength index PSSI,[2]; ITX 50 mg/kg oral,10.35 ± 0.89
same,Bone strength index XSSI,[2]; ITX 50 mg/kg oral,5.15 ± 0.62
same,Bone strength index YSSI,[2]; ITX 50 mg/kg oral,6.45 ± 0.67
same,Cancellous bone BMC,[2]; ITX 50 mg/kg oral,0.99 ± 0.12 mg/mm
same,Cancellous bone BMD,[2]; ITX 50 mg/kg oral,215 ± 25 mg/mL
same,Cortical bone BMC,[2]; ITX 50 mg/kg oral,7.72 ± 0.52 mg/mm
same,Cortical bone BMD,[2]; ITX 50 mg/kg oral,1137 ± 14 mg/mL
same,Cortical bone thickness,[2]; ITX 50 mg/kg oral,0.58 ± 0.03 mm
same,Edno. C. (endosteal circumference),[2]; ITX 50 mg/kg oral,9.92 ± 0.54 mm
same,Peri. C. (periosteal circumference),[2]; ITX 50 mg/kg oral,13.7 ± 0.5 mm
same,Total bone BMC,[2]; ITX 50 mg/kg oral,10.4 ± 0.8 mg/mm
same,Total bone BMD,[2]; ITX 50 mg/kg oral,707 ± 14 mg/mL
same,Cortical bone thickness as % of that of the Sham group,[2]; ITX 100 mg/kg oral,93.2%
same,Bone strength index PSSI,[2]; ITX 100 mg/kg oral,9.34 ± 0.70
same,Bone strength index XSSI,[2]; ITX 100 mg/kg oral,4.77 ± 0.68
same,Bone strength index YSSI,[2]; ITX 100 mg/kg oral,5.71 ± 0.41
same,Cancellous bone BMC,[2]; ITX 100 mg/kg oral,1.04 ± 0.15 mg/mm
same,Cancellous bone BMD,[2]; ITX 100 mg/kg oral,207 ± 28 mg/mL
same,Cortical bone BMC,[2]; ITX 100 mg/kg oral,7.40 ± 0.29 mg/mm
same,Cortical bone BMD,[2]; ITX 100 mg/kg oral,1138 ± 17 mg/mL
same,Cortical bone thickness,[2]; ITX 100 mg/kg oral,0.55 ± 0.03 mm
same,Edno. C. (endosteal circumference),[2]; ITX 100 mg/kg oral,9.97 ± 0.37 mm
same,Peri. C. (periosteal circumference),[2]; ITX 100 mg/kg oral,13.6 ± 0.4 mm
same,Total bone BMC,[2]; ITX 100 mg/kg oral,9.82 ± 0.37 mg/mm
same,Total bone BMD,[2]; ITX 100 mg/kg oral,683 ± 21 mg/mL
same,Tibia weight compared with the OVX group (in words),[3]; ITX 50 mg/kg oral,no significant difference
same,Femur weight compared with the OVX group (in words),[3]; ITX 100 mg/kg oral,no significant difference
same,Femur Length,[3]; [4],3.64 ± 0.05 cm
same,Femur Weight,[3]; [4],862 ± 64 mg
same,Tibia Length,[3]; [4],3.98 ± 0.14 cm
same,Tibia Weight,[3]; [4],588 ± 52 mg
same,Femur Length,[3]; [5],3.59 ± 0.22 cm
same,Femur Weight,[3]; [5],897 ± 83 mg
same,Tibia Length,[3]; [5],3.97 ± 0.24 cm
same,Tibia Weight,[3]; [5],562 ± 95 mg
"C[C@]12CC[C@@H]3c4ccc(O)cc4CC[C@H]3[C@@H]1CC[C@@H]2O [E2, 17β-estradiol, reference compound]",Body weight at the end compared to the OVX group (in words),[1]; E2 0.1 mg/kg,inhibition of increase
same,Body weight at the end,"[1]; OVX rats, E2 0.1 mg/kg into abdominal cavity, end of the experiment",299 ± 33 g
same,Decrease in uterine weight compared to the Sham group,"[1]; OVX rats, E2 0.1 mg/kg, end of the experiment",48.5%
same,"BMC and BMD (total, cancellous, cortical) compared to the OVX group (in words)",[2]; E2 0.1 mg/kg,inhibition of decrease in all but except total BMD and cancellous BMC
same,Endosteal circumference compared to the OVX group (in words),[2]; E2 0.1 mg/kg,inhibition of increase
same,Increase in XSSI compared to the OVX group,[2]; E2 0.1 mg/kg,15.3%
same,Increase in YSSI compared to the OVX group,[2]; E2 0.1 mg/kg,23.5%
same,Increase in cortical bone thickness compared to the OVX group,[2]; E2 0.1 mg/kg,9.8%
same,Periosteal circumference compared to the OVX group (in words),[2]; E2 0.1 mg/kg,a decrease
same,Cancellous bone BMC,[2]; [6],0.96 ± 0.17 mg/mm
same,Cancellous bone BMD,[2]; [6],244 ± 53 mg/mL
same,Cortical bone BMC,[2]; [6],7.58 ± 0.48 mg/mm
same,Cortical bone BMD,[2]; [6],1143 ± 22 mg/mL
same,Cortical bone thickness,[2]; [6],0.56 ± 0.03 mm
same,Edno. C. (endosteal circumference),[2]; [6],9.79 ± 0.57 mm
same,Peri. C. (periosteal circumference),[2]; [6],13.4 ± 0.6 mm
same,Total bone BMC,[2]; [6],10.5 ± 0.7 mg/mm
same,Total bone BMD,[2]; [6],723 ± 38 mg/mL
same,Femur Length,[3]; [6],3.59 ± 0.15 cm
same,Femur Weight,[3]; [6],861 ± 65 mg
same,Tibia Length,[3]; [6],3.76 ± 0.14 cm
same,Tibia Weight,[3]; [6],547 ± 94 mg
